Test [1] deals with T1, Human Neuropeptide Y2 Receptor (Homo sapiens, UniProt P49146).
T1 construct: purchased CHEMICON HTS066M
T1 sequence (P49146 1-381): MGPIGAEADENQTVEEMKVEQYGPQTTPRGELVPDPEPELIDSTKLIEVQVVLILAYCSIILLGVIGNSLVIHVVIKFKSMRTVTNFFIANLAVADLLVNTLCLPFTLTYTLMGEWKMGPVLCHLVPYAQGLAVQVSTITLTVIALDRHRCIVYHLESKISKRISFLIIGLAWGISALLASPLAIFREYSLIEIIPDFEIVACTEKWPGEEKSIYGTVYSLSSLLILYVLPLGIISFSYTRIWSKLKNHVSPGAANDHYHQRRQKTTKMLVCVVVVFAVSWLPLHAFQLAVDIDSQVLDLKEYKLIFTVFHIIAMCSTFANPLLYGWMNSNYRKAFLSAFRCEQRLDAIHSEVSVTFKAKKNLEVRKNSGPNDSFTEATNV
Briefly: Radioligand binding competition assay (RLB). The note with it: read-out: Ki. In outline:
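Filtration format; Y2R membrane prep 0.5 μg/well; buffer 50 mM HEPES/5 mM MgCl2/1 mM CaCl2/0.2% ovalbumin pH 7.4; 2 h RT, shaking. Harvest on PEI-soaked GF/C, ice-cold HEPES/500 mM NaCl washes, scintillation count. IC50 by nonlinear fit.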

The next test concerns normal NMRI mice. The test can be described thus: Effect on acute food intake in normal NMRI mice. The test is classed as in vivo. The note with it: male NMRI mice, 10 nmol/kg subcutaneously once. In outline:
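Male NMRI mice acclimatized in an HM-2 real-time food intake monitoring system, fasted 6 h before dark phase. Single subcutaneous dose of 10 nmol/kg peptide given 1 h before dark; n=7-8. Food intake expressed as % of vehicle group (50 mM phosphate pH7, 5% Mannitol).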

Where [2] appears, read: Table 3, human 125I-PYY (1-36) 0.02 nM, Y2 receptor membranes.

Molecules are shown by their SMILES. Read-outs that look alike come from different tables or passages of the source.

A word on the Ki: it is a measure of affinity in units of concentration, obtained from inhibition or displacement. In the case of `CC(C)CC(=O)N[C@@H](C)C(=O)N1CCC[C@H]1C(=O)N[C@@H](CCC(=O)O)C(=O)N[C@@H](CCCCNC(=O)COCCOCCNC(=O)COCCOCCNC(=O)CC[C@H](NC(=O)CCCCCCCCCCCCCCCCC(=O)O)C(=O)O)C(=O)N1CCC[C@H]1C(=O)N[C@@H](CCC(=O)O)C(=O)N[C@@H](C)C(=O)N[C@@H](CC(=O)O)C(=O)N[C@@H](C)C(=O)N[C@@H](CCC(=O)O)C(=O)N1CCC[C@H]1C(=O)N[C@@H](CCC(=O)O)C(=O)N[C@@H](CCC(=O)O)C(=O)N[C@@H](CC(C)C)C(=O)N[C@@H](CCC(N)=O)C(=O)N[C@@H](CCCNC(=N)N)C(=O)N[C@@H](Cc1ccc(O)cc1)C(=O)N[C@@H](Cc1ccc(O)cc1)C(=O)N[C@H](C(=O)N[C@@H](CO)C(=O)N[C@@H](CC(C)C)C(=O)N[C@@H](CCCNC(=N)N)C(=O)N[C@@H](Cc1c[nH]cn1)C(=O)N[C@@H](Cc1ccc(O)cc1)C(=O)N[C@@H](Cc1ccc(O)cc1)C(=O)N[C@@H](CC(N)=O)C(=O)N[C@@H](Cc1c[nH]c2ccccc12)C(=O)N[C@@H](CC(C)C)C(=O)N[C@H](C(=O)N[C@@H](CCCNC(=N)N)C(=O)N[C@@H](CCC(N)=O)C(=O)N[C@@H](CCCNC(=N)N)C(=O)N[C@@H](Cc1ccc(O)cc1)C(N)=O)[C@@H](C)O)C(C)C` [Compound 56, N{alpha-4}-(3-methylbutanoyl)-N{epsilon-7}-[2-(2-{2-[2-(2-{2-[(4S)-4-carboxy-4-(17-carboxyheptadecanamido)butanamido]ethoxy}ethoxy)acetamido]ethoxy}ethoxy)acetamido]-[4A,7K,9E,10A,13E,18Q,22V,28Y,30W,31L]hPYY (4-36)], the Ki in test [1] (setting [2]) turned out to be 1.26 nM. Further, the “Acute Food Intake 24 h [% vehicle]” value with normal NMRI mice stood at 53 % vehicle.
Turning to `CC(C)CC(=O)N[C@@H](C)C(=O)N1CCC[C@H]1C(=O)N[C@@H](CCC(=O)O)C(=O)N[C@@H](CCCCNC(=O)COCCOCCNC(=O)COCCOCCNC(=O)CC[C@H](NC(=O)CCCCCCCCCCCCCCCCC(=O)O)C(=O)O)C(=O)N1CCC[C@H]1C(=O)N[C@@H](CCC(=O)O)C(=O)N[C@@H](CCC(=O)O)C(=O)N[C@@H](CCC(=O)O)C(=O)N[C@@H](C)C(=O)N[C@@H](CO)C(=O)N[C@@H](CCC(=O)O)C(=O)N[C@@H](CCC(=O)O)C(=O)N[C@@H](CCC(=O)O)C(=O)N[C@@H](CC(C)C)C(=O)N[C@@H](CCC(N)=O)C(=O)N[C@@H](CCCNC(=N)N)C(=O)N[C@@H](Cc1ccc(O)cc1)C(=O)N[C@@H](Cc1ccc(O)cc1)C(=O)N[C@H](C(=O)N[C@@H](CO)C(=O)N[C@@H](CC(C)C)C(=O)N[C@@H](CCCNC(=N)N)C(=O)N[C@@H](Cc1c[nH]cn1)C(=O)N[C@@H](Cc1ccc(O)cc1)C(=O)N[C@@H](Cc1ccc(O)cc1)C(=O)N[C@@H](CC(N)=O)C(=O)N[C@@H](Cc1c[nH]c2ccccc12)C(=O)N[C@@H](CC(C)C)C(=O)N[C@H](C(=O)N[C@@H](CCCNC(=N)N)C(=O)N[C@@H](CCC(N)=O)C(=O)N[C@@H](CCCNC(=N)N)C(=O)N[C@@H](Cc1ccc(O)cc1)C(N)=O)[C@@H](C)O)C(C)C` [Compound 79, N{alpha-4}-(3-methylbutanoyl)-N{epsilon-7}-[2-(2-{2-[2-(2-{2-[(4S)-4-carboxy-4-(17-carboxyheptadecanamido)butanamido]ethoxy}ethoxy)acetamido]ethoxy}ethoxy)acetamido]-[4A,7K,9E,11E,14E,18Q,22V,28Y,30W,31L]hPYY (4-36)], the Ki in test [1] came out at 4.52 nM. Moreover, in the test on normal NMRI mice, the “Acute Food Intake 24 h [% vehicle]” value was found to be 75 % vehicle.
For the molecule `CC(C)CC(=O)N[C@@H](C)C(=O)N1CCC[C@H]1C(=O)N[C@@H](CCC(=O)O)C(=O)N[C@@H](CCCCNC(=O)COCCOCCNC(=O)COCCOCCNC(=O)CC[C@H](NC(=O)CCCCCCCCCCCCCCCCC(=O)O)C(=O)O)C(=O)N1CCC[C@H]1C(=O)N[C@@H](CCC(=O)O)C(=O)N[C@@H](CCC(=O)O)C(=O)N[C@@H](CC(=O)O)C(=O)N[C@@H](C)C(=O)N[C@@H](CO)C(=O)N1CCC[C@H]1C(=O)N[C@@H](CCC(=O)O)C(=O)N[C@@H](CCC(=O)O)C(=O)N[C@@H](CC(C)C)C(=O)N[C@@H](CCC(N)=O)C(=O)N[C@@H](CCCNC(=N)N)C(=O)N[C@@H](Cc1ccc(O)cc1)C(=O)N[C@@H](CCC(=O)O)C(=O)N[C@H](C(=O)N[C@@H](CO)C(=O)N[C@@H](CC(C)C)C(=O)N[C@@H](CCCNC(=N)N)C(=O)N[C@@H](Cc1c[nH]cn1)C(=O)N[C@@H](Cc1ccc(O)cc1)C(=O)N[C@@H](Cc1ccc(O)cc1)C(=O)N[C@@H](CC(N)=O)C(=O)N[C@@H](Cc1c[nH]c2ccccc12)C(=O)N[C@@H](CC(C)C)C(=O)N[C@H](C(=O)N[C@@H](CCCNC(=N)N)C(=O)N[C@@H](CCC(N)=O)C(=O)N[C@@H](CCCNC(=N)N)C(=O)N[C@@H](Cc1ccc(O)cc1)C(N)=O)[C@@H](C)O)C(C)C` [Compound 90, N{alpha-4}-(3-methylbutanoyl)-N{epsilon-7}-[2-(2-{2-[2-(2-{2-[(4S)-4-carboxy-4-(17-carboxyheptadecanamido)butanamido]ethoxy}ethoxy)acetamido]ethoxy}ethoxy)acetamido]-[4A,7K,9E,18Q,21E,22V,28Y,30W,31L]hPYY (4-36)], in test [1] (setting [2]), the Ki turned out to be 1.6 nM. The “Acute Food Intake 24 h [% vehicle]” value with normal NMRI mice stood at 70 % vehicle.
With `CC(C)CC(=O)N[C@@H](C)C(=O)N1CCC[C@H]1C(=O)N[C@@H](CCC(=O)O)C(=O)N[C@@H](CCCCNC(=O)COCCOCCNC(=O)COCCOCCNC(=O)CC[C@H](NC(=O)CCCCCCCCCCCCCCCCC(=O)O)C(=O)O)C(=O)N1CCC[C@H]1C(=O)N[C@@H](CCC(=O)O)C(=O)N[C@@H](CCC(=O)O)C(=O)N[C@@H](CC(=O)O)C(=O)N[C@@H](C)C(=O)N[C@H](C(=O)N1CCC[C@H]1C(=O)N[C@@H](CCC(=O)O)C(=O)N[C@@H](CCC(=O)O)C(=O)N[C@@H](CC(C)C)C(=O)N[C@@H](CCC(N)=O)C(=O)N[C@@H](CCCNC(=N)N)C(=O)N[C@@H](Cc1ccc(O)cc1)C(=O)N[C@@H](Cc1ccc(O)cc1)C(=O)N[C@H](C(=O)N[C@@H](CCC(=O)O)C(=O)N[C@@H](CC(C)C)C(=O)N[C@@H](CCCNC(=N)N)C(=O)N[C@@H](Cc1c[nH]cn1)C(=O)N[C@@H](Cc1ccc(O)cc1)C(=O)N[C@@H](Cc1ccc(O)cc1)C(=O)N[C@@H](CC(N)=O)C(=O)N[C@@H](Cc1c[nH]c2ccccc12)C(=O)N[C@@H](CC(C)C)C(=O)N[C@H](C(=O)N[C@@H](CCCNC(=N)N)C(=O)N[C@@H](CCC(N)=O)C(=O)N[C@@H](CCCNC(=N)N)C(=O)N[C@@H](Cc1ccc(O)cc1)C(N)=O)[C@@H](C)O)C(C)C)[C@@H](C)O` [Compound 101, N{alpha-4}-(3-methylbutanoyl)-N{epsilon-7}-[2-(2-{2-[2-(2-{2-[(4S)-4-carboxy-4-(17-carboxyheptadecanamido)butanamido]ethoxy}ethoxy)acetamido]ethoxy}ethoxy)acetamido]-[4A,7K,9E,13T,18Q,22V,23E,28Y,30W,31L]hPYY (4-36)], the Ki in test [1] (setting [2]) worked out at 3.29 nM. For the same molecule, the “Acute Food Intake 24 h [% vehicle]” value in the test with normal NMRI mice was found to be 63 % vehicle.
Consider `CC(C)CC(=O)N[C@@H](C)C(=O)N1CCC[C@H]1C(=O)N[C@@H](C)C(=O)N[C@@H](CCCCNC(=O)COCCOCCNC(=O)COCCOCCNC(=O)CC[C@H](NC(=O)CCCCCCCCCCCCCCCCC(=O)O)C(=O)O)C(=O)N1CCC[C@H]1C(=O)N[C@@H](CCC(=O)O)C(=O)N[C@@H](CCC(=O)O)C(=O)N[C@@H](CC(=O)O)C(=O)N[C@@H](C)C(=O)N[C@@H](CO)C(=O)N[C@@H](CCC(=O)O)C(=O)N[C@@H](CCC(=O)O)C(=O)N[C@@H](CCC(=O)O)C(=O)N[C@@H](CC(C)C)C(=O)N[C@@H](CCC(N)=O)C(=O)N[C@@H](CCCNC(=N)N)C(=O)N[C@@H](Cc1ccc(O)cc1)C(=O)N[C@@H](Cc1ccc(O)cc1)C(=O)N[C@H](C(=O)N[C@@H](CO)C(=O)N[C@@H](CC(C)C)C(=O)N[C@@H](CCCNC(=N)N)C(=O)N[C@@H](Cc1c[nH]cn1)C(=O)N[C@@H](Cc1ccc(O)cc1)C(=O)N[C@@H](Cc1ccc(O)cc1)C(=O)N[C@@H](CC(N)=O)C(=O)N[C@@H](Cc1c[nH]c2ccccc12)C(=O)N[C@@H](CC(C)C)C(=O)N[C@H](C(=O)N[C@@H](CCCNC(=N)N)C(=O)N[C@@H](CCC(N)=O)C(=O)N[C@@H](CCCNC(=N)N)C(=O)N[C@@H](Cc1ccc(O)cc1)C(N)=O)[C@@H](C)O)C(C)C` [Compound 103, N{alpha-4}-(3-methylbutanoyl)-N{epsilon-7}-[2-(2-{2-[2-(2-{2-[(4S)-4-carboxy-4-(17-carboxyheptadecanamido)butanamido]ethoxy}ethoxy)acetamido]ethoxy}ethoxy)acetamido]-[4A,6A,7K,9E,14E,18Q,22V,28Y,30W,31L]hPYY (4-36)], for which the Ki in test [1] (setting [2]) came out at 0.95 nM. The “Acute Food Intake 24 h [% vehicle]” value in the test with normal NMRI mice was 67 % vehicle.

These data come from US12559529B2, “NPY2 receptor agonists” (Boehringer Ingelheim International GmbH, priority 2019, dated 2026).
